Read-outs that look alike come from different tables or passages of the source. No end group written: not given here.
Assays:
hRetromer = target: T1, hRetromer (Homo sapiens, UniProt O75436+Q96QK1+Q9UBQ0); test: Isothermal titration calorimetry (ITC) of binding to Retromer; details: 25 °C; for -TΔS / Kd / ΔG / ΔH: ITC, mean of triplicate titrations
T1 construct: GST (pGEX4T-2, thrombin site plus linker) (N, cleaved yes); made in house; host or cells: E. coli BL21 (DE3)
Procedure: All the bacteria constructs were expressed in BL21 (DE3) cells using the autoinduction method. In brief, cultures grown in complex medium were incubated at 37 °C for 4 h, followed by overnight growth at 20 °C before harvesting for purification. […] In all cases, the soluble fractions clarified by centrifugation were loaded onto pre-equilibrated glutathione sepharose (GE healthcare) for initial purification. For Retromer, an additional Talon® resin purification step was performed to ensure the correct stoichiometry. GST-tag removal was carried out co-column overnight by adding thrombin for Human Retromer and PreScission protease for TBC1D13. The GST-tag removed fraction was further purified by size-exclusion chromatography (SEC) using a Superdex 200 (16/600) column (GE Healthcare) equilibrated with buffer containing 50 mM Tris-HCl pH 7.5, 200 mM NaCl, 2 mM β-ME.
The effect of cyclic peptide was assessed by pre-mixing 140 µM RT-D1 into 14 µM Retromer before titrating with 1 mM of native DENND4C1189-1206 peptide. For the binding experiment between Retromer and TBC1D13, 530 µM of TBC1D13 was titrated into 14 µM Retromer. The effect of the cyclic peptide was tested using the same concentration of RT-D1 as described above. All ITC experiments consisted of an initial 0.4 μl (not used in data processing), followed by 12 serial injections of 3.22 μl each with 180 sec intervals. The resulting titration data were integrated with the Malvern software package by fitting and normalised data to a single-site binding model. This yielded the thermodynamic parameters for all binding experiments, including the dissociation constant (Kd), enthalpy (∆H), Gibbs free energy (∆G) and -T∆S. The stoichiometry (N) was refined initially, and if the value was close to 1, then it was set to exactly 1.0 for calculation. The data presented are the mean of triplicate titrations for each experiment.

[1] = tested on: colocalization with VPS35 or SNX1 in HeLa cells; test: Immunofluorescence colocalization analysis (Manders/Pearson coefficients); format: cell-based, human; details: mean of the 3 experiment averages (n = 3)
Procedure: HeLa cells were seeded onto 13 mm coverslips. Cells were fixed in 4% (v/v) paraformaldehyde (PFA) (Pierce, 28906) in PBS for 20 min and permeabilised in 0.1% (v/v) Triton X-100 in PBS (Sigma-Aldrich), or in 0.1% (w/v) saponin (sigma-Aldrich) in PBS when labelling LAMP1 compartments, for 5 min followed by blocking with 2% (w/v) BSA (Sigma, 05482) in PBS for 30 min. Coverslips were stained with primary antibodies for 1 hr followed by secondary antibodies for 30 min, then mounted onto glass microscope slides with Fluoromount-G (Invitrogen, 00-4958-02).
Confocal microscope images were taken on a Leica SP5-II confocal laser scanning microscope attached to a Leica DMI 6000 inverted epifluorescence microscope or a Leica SP8 confocal laser scanning microscope attached to a Leica DM l8 inverted epifluorescence microscope (Leica Microsystems), with a 63x UV oil immersion lens, numerical aperture 1.4 (Leica Microsystems, 506192). For the Leica SP8 microscope, ‘lightning’ adaptive image restoration was used to generate deconvolved representative images. Colocalization analysis was performed using Volocity 6.3 software (PerkinElmer) or JACOP plugin from ImageJ-FIJI software. Spinning disk high-resolution images were acquired on an IXplore SpinSR system (Olympus) consisting of an IX83 microscope frame with a CO2 and temperature chamber (Olympus), SoRa W1 twin cam spinning disk unit (Yokogawa) and two back-thinned Fusion BT sCMOS cameras (Hamamatsu). A 488 nm or 561 nm laser provided excitation for the green and red channels, respectively. The SoRa disk with an additional 3.2x magnification changer was used for imaging with excitation light focused to the sample using a 60x/1.4NA oil immersion lens. The system operated in simultaneous twin-cam mode, and the desired fluorescence was selected through the use of either a 525/50 nm or 617/73 nm bandpass filter for the green or red channel, respectively.

[2] = tested on: HeLa lines expressing the BioID1 chimeric versions; test: GLUT1 and α5β1-integrin trafficking (lysosomal missorting/colocalization with LAMP1) after biotin incubation; format: cell-based, human; details: 24 h incubation with 50 µM biotin; HeLa lines expressing the BioID1 chimeras; confocal imaging
Procedure: To explore the robustness of the proximity labelling, we performed an initial biased identification of the biotinylated proteins using western analysis of target proteins. Although 12 h incubation with biotin was enough to label some interactors, we chose to perform all experiments using 24 h incubation to maximise the detection of weak and low abundance proximity proteins, and the potential to identify cargo proteins transiting through the sub-domains (Supplementary Fig. 2H). Importantly, we tested whether the actual biotin-labelling process had any detectable effect on Retromer and Retriever-dependent cargo sorting.
HeLa cells were seeded onto 13 mm coverslips. […]
Confocal microscope images were taken on a Leica SP5-II confocal laser scanning microscope attached to a Leica DMI 6000 inverted epifluorescence microscope or a Leica SP8 confocal laser scanning microscope attached to a Leica DM l8 inverted epifluorescence microscope (Leica Microsystems), with a 63x UV oil immersion lens, numerical aperture 1.4 (Leica Microsystems, 506192). […] The system operated in simultaneous twin-cam mode, and the desired fluorescence was selected through the use of either a 525/50 nm or 617/73 nm bandpass filter for the green or red channel, respectively. […]

[3] = 140 µM RT-D1 pre-mixed into 14 µM Retromer, then titrated with 1 mM native DENND4C1189-1206 peptide
[4] = 1 mM DENND4C1189-1206 peptide (native or L1204A) titrated into 14 µM Retromer

“hDENND4C1189-1206 + RT-D1: native DENND4C1189-1206 peptide titrated into Retromer pre-mixed with 140 µM RT-D1 (AKVVQREDVETGLDPLSL; premixed with Retromer and RT-D1; UniProt Q5VZ89 1189-1206, looked up, fragment)” was tested, and the “-TΔS” value (hRetromer; [3]) was “No binding detected”, the Kd (hRetromer; [3]) was “No binding detected” and the ΔG (hRetromer; [3]) was “No binding detected”. The ΔH (hRetromer; [3]) was “No binding detected”.
For “AKVVQREDVETGLDPASL [hDENND4C1189-1206 L1204A]”, the “-TΔS” value (hRetromer; [4]) was “No binding detected”, the ΔG (hRetromer; [4]) was “No binding detected” and the ΔH (hRetromer; [4]) was “No binding detected”. For the same compound, the Kd (hRetromer; Microcal PEAQ-ITC, 1 mM DENND4C1189-1206 peptide (native or L1204A) titrated into 14 µM Retromer, single-site binding model) was “No binding detected”.
GFP-DENND4C WT was tested, and the GFP-DENND4C dots/section [1] was 55.5, the “M1 GFP-DENND4C/VPS35 (Manders coefficient)” value [1] was 0.4133 and the “M2 GFP-DENND4C/VPS35 (Manders coefficient)” value [1] was 0.28.
For AKVVQREDVETGLDPLSL [hDENND4C1189-1206], the Kd (hRetromer; Microcal PEAQ-ITC, 1 mM DENND4C1189-1206 peptide (native or L1204A) titrated into 14 µM Retromer, single-site binding model, read-out: Kd) was 15.4 ± 0.85 µM.
With GFP-DENND4C L1201A the GFP-DENND4C dots/section [1] was 11.1, the “M1 GFP-DENND4C/VPS35 (Manders coefficient)” value [1] was 0.06333 and the “M2 GFP-DENND4C/VPS35 (Manders coefficient)” value [1] was 0.06433.
`O=C(O)CCCC[C@@H]1SC[C@@H]2NC(=O)N[C@@H]21` [biotin] was tested, and the “Effect of biotin labelling on trafficking of GLUT1 or α5β1-integrin” value [2] was “did not detect significant changes”.
“Ac-yIIDTPLGVFLSSLKRC-NH2 [RT-D1, reference compound]” was tested, and the “Effect of competing RT-D1 on binding of the DENND4C PL-containing peptide” value (hRetromer; ITC competition, 140 µM RT-D1 pre-mixed into 14 µM Retromer, 1 mM DENND4C1189-1206 peptide titrated) was “blocked”.

— paper PMC12311110 (Nature Communications, 2025)
